In article PMC4157868, “Real-Time Analysis of Imatinib- and Dasatinib-Induced Effects on Chronic Myelogenous Leukemia Cell Interaction with Fibronectin” (PLoS ONE, 2014):

Experiments:
[1] = system: HEL and JURKAT cells on fibronectin; experiment: real-time microimpedance, cell interaction with fibronectin, BCR-ABL-negative cells; format: cell-based, human; settings: low-dose (several nM) dasatinib
Description: (§1) (PPTX) Click here for additional data file.
as §1

[2] = system: JURL-MK1 and MOLM-7 cells; experiment: apoptosis onset: caspase activation (Ac-DEVD-AFC), Annexin V staining; format: cell-based, human
[3] = system: JURL-MK1 cells on fibronectin; experiment: kinetics of JURL-MK1 cell adhesivity to fibronectin (adherent cell fraction); format: cell-based, human
Description: Supplementary file pone.0107367.s001.pdf: Figure S1 Kinetics of dasatinib-induced cell death and changes in cell adhesivity to fibronectin. […] Cell fraction in sub-G1 region of cell cycle phase distribution in samples stained with propidium iodide. […] (PDF) Click here for additional data file.

[4] = system: active SFKs in MOLM-7 cells; experiment: immunofluorescence of phospho-SFK in adhesion sites; format: cell-based, human; settings: MOLM-7 on fibronectin
Protocol: The cells were plated on fibronectin coated coverslips or glass bottom dishes, incubated for 60 minutes in CO2 incubator, fixed with 2% paraformaldehyde, permeabilized in 0.3% Triton/PBS and incubated with anti-phospho-SRC family primary antibody and a secondary antibody (Alexa Fluor 488 Goat Anti-Rabbit). F-actin was labeled with rhodamine phalloidin (Molecular Probes). Samples were analyzed using an Olympus Fluoview FV1000 confocal laser scanning microscope.
To support our hypothesis that SFKs may be involved in regulation of cell interaction with fibronectin, we studied the intracellular localization of active SFKs using the phospho-specific anti-SFK antibody. […] In JURL-MK1 cells, the active SFKs were found mainly in the contours of cell-surface contact areas and their localization to the sites of the closest contact was less evident due to different morphology (Figure 8B). […] As the main SFKs in JURL-MK1 and MOLM-7 were LYN and LYN+LCK, respectively, we also analyzed the intracellular localization of these individual kinases.
(PDF) Click here for additional data file.

[5] = system: JURL-MK1 and MOLM-7 cells on fibronectin; experiment: end-point adherent cell fraction on fibronectin-coated wells
Protocol: Briefly, the cells (1×10^4) were seeded into fibronectin-coated wells on a microtitration plate and incubated for 1 h at 37°C. Then, the cells were washed wih PBS/Ca^2+/Mg^2+ and the remaining cells were quantified by means of fluorescent labelling (CyQuant Cell Proliferation Assay Kit; Molecular Probes). The adherent cell fraction (ACF) was calculated using the fluorescence signal from fibronectin-coated plate and the signal obtained from a reference plate that contained the total cell number.

[6] = system: JURL-MK1 and MOLM-7 cells on fibronectin; experiment: real-time microimpedance, cell interaction with fibronectin, BCR-ABL-positive cells; format: cell-based, human; settings: dasatinib 100 nM, clinically relevant dose
Protocol: RTCA xCELLigence DP system (Acea Biosciences, San Diego, CA, U.S.A.) was placed in an incubator (at 37°C) with 5% CO2 content. […] The microimpedance signal (cell index) was set to zero in these conditions. […] DMSO (0.1%) was also added to control wells.
Cells were seeded into E-plates and incubated for 1–2 h to allow for cell attachment to the coated cell bottom. After signal stabilization, the drug was added in a small drop while the corresponding solvent was added to control wells as any mechanical perturbation usually produced minor changes, too.
The cells (6×10^4 per well) were seeded into fibronectin-coated E-plates. After the microimpedance signal stabilization, the appropriate inhibitor was added in triplets. […] Microimpedance signal (cell index) was normalized to 1 at the time of inhibitor addition.

[7] = system: JURL-MK1 cells on fibronectin; settings: cited from earlier work

SMILES: Cc1nc(Nc2ncc(C(=O)Nc3c(C)cccc3Cl)s2)cc(N2CCN(CCO)CC2)n1 [dasatinib]
- change of cell binding to fibronectin [1]: no significant change
- number of early apoptotic cells, Annexin V staining ([2]; 10 nM dasatinib, 6 h, JURL-MK1 and MOLM-7): no significant increase in the number of early apoptotic cells
- time of treatment at which caspases became activated ([2]; dasatinib 10 nM): about 6 h
- cell adhesivity to fibronectin after 24 h treatment ([3]; dasatinib 2 nM): cell adhesivity to fibronectin lowered
- phospho-SFK fluorescent signal at adhesion sites ([4]; 100 nM dasatinib, 30 min): complete disappearance of the green fluorescent signal from adhesion sites
- change in number of cells attached to fibronectin ([5]; dasatinib 1 to 10 nM, JURL-MK1 and MOLM-7): mild increase in the number of attached cells
- change in CML cell binding to fibronectin ([5]; dasatinib at therapeutic concentrations (100 nM)): does not enhance CML cell binding to fibronectin
- effect on CML cell binding to fibronectin [6]: almost no effect

SMILES: CC(C)(C)n1nc(-c2ccc(Cl)cc2)c2c(N)ncnc21 [PP2]
- effect on JURL-MK1 cell adhesivity to FN ([7]; PP2, recently reported by the authors): increases JURL-MK1 cell adhesivity to FN
- phospho-SFK fluorescent signal at adhesion sites ([4]; 10 µM PP2, 30 min): The same effect was also reached

SMILES: CC(C)[C@H](NC(=O)c1ccc2ccccc2n1)C(=O)N[C@@H](CC(=O)O)C(=O)COc1c(F)cccc1F [Q-VD-OPh]
- effect on the dasatinib-induced decrease of cell adhesivity to fibronectin ([3]; 10 µM Q-VD-OPh added together with 2 nM dasatinib, 24 h): This decrease was prevented

SMILES: Cc1ccc(NC(=O)c2ccc(CN3CCN(C)CC3)cc2)cc1Nc1nccc(-c2cccnc2)n1 [imatinib]
- cell fraction adhering to FN ([7]; imatinib, first several hours of treatment, JURL-MK1): the cell fraction adhering to FN increased
